Values of other authors, collected in PMC3375280 (PLoS ONE, 2012).

Biological target: T1, wild-type (WT) AT1 receptor (Rattus norvegicus, UniProt P25095)
T1 sequence (P25095 1-359): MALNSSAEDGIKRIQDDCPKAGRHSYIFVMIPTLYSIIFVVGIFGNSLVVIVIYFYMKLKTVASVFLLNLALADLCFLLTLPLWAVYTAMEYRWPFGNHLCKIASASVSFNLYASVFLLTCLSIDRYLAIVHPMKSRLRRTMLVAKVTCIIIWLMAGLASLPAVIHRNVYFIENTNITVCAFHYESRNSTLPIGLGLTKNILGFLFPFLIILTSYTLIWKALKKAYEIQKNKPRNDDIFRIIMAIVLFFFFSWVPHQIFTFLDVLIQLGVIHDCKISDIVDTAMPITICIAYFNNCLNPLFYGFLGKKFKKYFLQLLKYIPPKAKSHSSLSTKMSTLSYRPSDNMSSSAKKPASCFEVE
Set-up: expressed in transfected cells; host or cells: COS1 cells
Conditions: previously reported; cited from earlier work

CCCc1nc(C(C)(C)O)c(C(N)=O)n1Cc1ccc(-c2ccccc2-c2nnn[nH]2)cc1 [R239470]
Pharmacological behaviour toward IP production: neutral antagonist

CCCc1nc(C(C)(C)O)c(C(=O)O)n1Cc1ccc(-c2ccccc2-c2nnn[nH]2)cc1 [Olmesartan, olmesartan, reference compound]
Pharmacological behaviour toward IP production: inverse agonism
